Measured values taken from patent US7186886B2, “Aliphatic acyl transferase genes” (International Flower Developments Proprietary Limited, priority 2000, dated 2007).
Blank lines part the entries; values can stand above or below the molecule they belong to.

Key:
[1] = Colour of anthocyanin solutions in McIlvaine buffer evaluated with Colour charts (Royal Horticulture Society); type: physicochemical; conditions: for Number in Colour chart at pH 5.3: McIlvaine buffer pH 5.3; for Number in Colour chart at pH 5.3 / Number in Colour chart at pH 5.6 / Number in Colour chart at pH 6.0: greater number = bluer, A = bluest within a number; for Number in Colour chart at pH 5.6: McIlvaine buffer pH 5.6; for Number in Colour chart at pH 6.0: McIlvaine buffer pH 6.0
Description: Delphinidin 3,5-diglucoside, awobanin (delphinidin 3-(coumaroyl) glucoside-5-glucoside), malonyl-awobanin (delphinidin 3-(coumaroyl)glucoside-5-(malonyl) glucoside) were dissolved in McIlvaine buffer (pH 5.3, pH 5.6, pH 6.0) in concentrations of 0.1 mM, 0.3 mM, 0.5 mM, respectively, and colours of the solutions were evaluated using Colour charts (Royal Horticulture Society). Delphinidin 3,5-diglucoside can be obtained from its 3,5-diacetylglucoside form by removing the acetyl portion in alkaline hydrolysis reaction (Tetrahedron, 48, 4313–4326, 1992). Awobanin can be obtained from malonyl-awobanin by removing its 5-malonyl portion (Tetrahedron Lett. 24, 4863–4866, 1983). Malonyl-awobanin was obtained by extraction from plants using the method as set forth in Tetrahedron Lett. 24, 4863–4866, 1983. The greater the number in the Colour chart, the bluer the colour is. When the number is the same, symbol A represents the bluest colour.

[2] = Malonyl transferase activity of E. coli-expressed gene product, shisonin as substrate, HPLC detection; type: biochemical
Description: Measurement of activity of malonyl transferase was conducted using reaction solution 100 μl (potassium phosphate of final concentration of 20 mM, pH 7.0, containing shisonin 10 μg, malonyl CoA 10 μg, and an enzyme sample to be measured, dissolved in 0.01% trifluoro acetic acid). After reaction was carried out at 30° C. for 20 minutes, the reaction was terminated by adding 200 μl of 0.05% TFA aqueous solution cooled on ice. Quantification of shisonin and malonyl-shisonin was conducted by reverse phase high performance liquid chromatography (DYNAMAX HPLC system) using a Shodex Asahipak ODP-50 4E column, and using a linear concentration gradient with 0.5% TFA solution as the solution and 0.5% TFA, 50% acetonitrile aqueous solution as the solution, such that concentration of the B solution was 45%, 45%, 55%, 100%, 100%, 45%, and 45%, at time 0, 3, 17, 18, 23, 24, and 30 minutes, respectively, after the start of separation, at a flow rate of 0.7 ml/min, using 50 μl of reaction solution, monitoring absorption at 520 nm. […]
Enzyme activity was measured using a supernatant (soluble fraction) obtained after centrifuging. […]
As in Example 7, using a plasmid constructed such that the PfMaT1 gene obtained in Example 9 can be expressed as a fusion protein fused with LacZ protein, the PfMaT1 gene was expressed in Escherichia coli as in Example 7, and enzyme activity was measured. […]

Number in Colour chart at pH 5.3 ([1]; 0.1 mM): 85C
Number in Colour chart at pH 5.6 ([1]; 0.1 mM): 85A
Number in Colour chart at pH 6.0 ([1]; 0.1 mM): 91B
Number in Colour chart at pH 5.3 ([1]; 0.3 mM): 86D
Number in Colour chart at pH 6.0 ([1]; 0.3 mM): 91A
Molecule: O=C(/C=C/c1ccc(O)cc1)OC[C@H]1O[C@@H](Oc2cc3c(O[C@@H]4O[C@H](CO)[C@@H](O)[C@H](O)[C@H]4O)cc(O)cc3[o+]c2-c2cc(O)c(O)c(O)c2)[C@H](O)[C@@H](O)[C@@H]1O [Awobanin, delphinidin 3-(coumaroyl) glucoside-5-glucoside]

Number in Colour chart at pH 5.3 ([1]; 0.1 mM): 85C
Number in Colour chart at pH 5.6 ([1]; 0.1 mM): 91B
Number in Colour chart at pH 6.0 ([1]; 0.1 mM): 91B
Number in Colour chart at pH 5.3 ([1]; 0.3 mM): 92A
Number in Colour chart at pH 5.6 ([1]; 0.3 mM): 93B
Number in Colour chart at pH 6.0 ([1]; 0.3 mM): 96C
Number in Colour chart at pH 5.3 ([1]; 0.5 mM): 93B
Number in Colour chart at pH 6.0 ([1]; 0.5 mM): 96A
Colour of solution compared among the three anthocyanins ([1]; all concentrations and pH, versus delphinidin 3,5-diglucoside and awobanin): the bluest
Molecule: O=C(O)CC(=O)OC[C@H]1O[C@@H](Oc2cc(O)cc3[o+]c(-c4cc(O)c(O)c(O)c4)c(O[C@@H]4O[C@H](COC(=O)/C=C/c5ccc(O)cc5)[C@@H](O)[C@H](O)[C@H]4O)cc23)[C@H](O)[C@@H](O)[C@@H]1O [Malonyl-awobanin, delphinidin 3-(coumaroyl)glucoside-5-(malonyl) glucoside]

More lines, now with the values behind:

Molecule: OC[C@H]1O[C@@H](Oc2cc3c(O[C@@H]4O[C@H](CO)[C@@H](O)[C@H](O)[C@H]4O)cc(O)cc3[o+]c2-c2cc(O)c(O)c(O)c2)[C@H](O)[C@@H](O)[C@@H]1O [Delphinidin 3,5-diglucoside]
Number in Colour chart at pH 5.3 ([1]; 0.1 mM): 84C
Number in Colour chart at pH 5.6 ([1]; 0.1 mM): 84C
Number in Colour chart at pH 5.3 ([1]; 0.3 mM): 85A
Number in Colour chart at pH 5.6 ([1]; 0.3 mM): 86D
Number in Colour chart at pH 6.0 ([1]; 0.3 mM): 88C
Number in Colour chart at pH 5.3 ([1]; 0.5 mM): 86D
Number in Colour chart at pH 5.6 ([1]; 0.5 mM): 90B
Number in Colour chart at pH 6.0 ([1]; 0.5 mM): 88B/C

B1: SsMaT1: Salvia splendens malonyl transferase gene product (SEQ ID NO: 23), expressed in E. coli from pQE-30Xa-SsMaT1 (protein, listed as Salvia splendens)
chain: TTTTILETCHIPPPPAANDLSIPLSFFDIKWLHYHPVRRLLFYHHPSSKSQFLHTIVPHLKQSLSLALTHYLPVAGNLLYPSNTEKFPQLRYAAGDSVPVTIAESNSDFESLTGNHTRDADQFYDLLPPIPPIEEESDWKLINIFAVQITLFPGEGICIGFSNHHCLGDASSIVGFISAWGEINGIGGYEGFLSNHSDSLSLPIFDRSFINDPNKIDAIFWKVLSNMPLKTASFPLPTNSVSSTFLLRSSDIEKLKTATKSPASSFVAAAAFVWSCMVKSGDKSDENAPELFIMPADASGSVDPPMPENYFGNCIVSSVAQVERGKLAAEDGFAVAAEAIGGEIEGKLKNSDEILSGAENWMSDMFKCFGMSVLGVSGSPKFDLLKADFGWGKASKLEVLSIDGENHSMSLCSSSDFNGGLEVGLSLPSESMAAFEEVFSASMMAASGPASRSPALVEPL
modifications: possible His tag from pQE-30Xa
Acyl transfer to shisonin with other acyl CoA substrates (new HPLC peak) ([2]; acetyl CoA, methylmalonyl CoA, or succinyl CoA in place of malonyl CoA): a new peak in addition to shisonin was observed
Malonyl transferase activity (formation of malonyl-shisonin) ([2]; shisonin and malonyl CoA, 30° C., 20 minutes, pH 7.0, soluble extract of expressing Escherichia coli): malonyl-shisonin was produced
